≈ marks a conversion by molar mass, not a printed value. Like-named read-outs stand apart in the source and are kept apart here.
Legend:
[1] = system: S. aureus GC1079 (tet(K)); assay: MIC broth microdilution, S. aureus GC1079 (tet(K)); type: cell-based; details: MHBII, 18-22 hours at 35° C.
Experimental: (§1) Methods for in Vitro Antibacterial Evaluation
(§2) The minimum inhibitory concentration (MIC)
(§3) Antimicrobial susceptibility testing. The in vitro activities of representative examples of antibiotics of the invention are determined by the broth microdilution method as recommended by the National Committee for Clinical Laboratory Standards (NCCLS) (1). Mueller-Hinton II broth (MHBII)(BBL Cockeysville, Md.) is the medium employed in the testing procedures. Microtiter plates containing serial dilutions of each antimicrobial agent are inoculated with each organism to yield the appropriate density (10^5 CFU/ml) in a 100 μl final volume. The plates are incubated for 18-22 hours at 35° C. in ambient air. […] NCCLS. 2000. Methods for Dilution Antimicrobial Susceptibility Tests for Bacteria That Grow Aerobically; Approved Standards: M7-A5, vol. 20. National Committe for Clinical Laboratory Standards, Wayne, Pa.

[2] = system: S. aureus GC4536 (Smith MP -In Vivo); assay: MIC broth microdilution, S. aureus GC4536 (Smith MP -In Vivo); type: cell-based; details: MHBII, 18-22 hours at 35° C.
Experimental: as §1, §2, §3

[3] = system: M. catarrhalis* GC6907 (Clinical); assay: MIC broth microdilution, M. catarrhalis GC6907 (Clinical); type: cell-based; details: 18-22 hours at 35° C.
Experimental: as §1, §2, §3

[4] = system: S. pyogenes* GC4563 (Clinical); assay: MIC broth microdilution, S. pyogenes GC4563 (Clinical); type: cell-based; details: 18-22 hours at 35° C.
Experimental: as §1, §2, §3

[5] = system: S. aureus GC2216 (ATCC Control); assay: MIC broth microdilution, S. aureus GC2216 (ATCC Control); type: cell-based; details: MHBII, 18-22 hours at 35° C.
Experimental: as §1, §2, §3

[6] = system: S. aureus GC6466 (tet(M)); assay: MIC broth microdilution, S. aureus GC6466 (tet(M)); type: cell-based; details: MHBII, 18-22 hours at 35° C.
Experimental: as §1, §2, §3

[7] = system: E. faecalis GC4555 (ATCC Control); assay: MIC broth microdilution, E. faecalis GC4555 (ATCC Control); type: cell-based; details: MHBII, 18-22 hours at 35° C.
Experimental: as §1, §2, §3

[8] = system: E. coli GC4559 (parent GC4560); assay: MIC broth microdilution, E. coli GC4559 (parent GC4560); type: cell-based; details: MHBII, 18-22 hours at 35° C.
Experimental: as §1, §2, §3

[9] = system: E. coli GC2203 (ATCC Control); assay: MIC broth microdilution, E. coli GC2203 (ATCC Control); type: cell-based; details: MHBII, 18-22 hours at 35° C.
Experimental: as §1, §2, §3

[10] = system: E. faecalis GC2242 (Van-resistant); assay: MIC broth microdilution, E. faecalis GC2242 (Van-resistant); type: cell-based; details: MHBII, 18-22 hours at 35° C.
Experimental: as §1, §2, §3

[11] = system: S. pneumoniae* GC4465 (Clinical); assay: MIC broth microdilution, S. pneumoniae GC4465 (Clinical); type: cell-based; details: 18-22 hours at 35° C.
Experimental: as §1, §2, §3

[12] = system: E. coli GC1073 (tet(B)); assay: MIC broth microdilution, E. coli GC1073 (tet(B)); type: cell-based; details: MHBII, 18-22 hours at 35° C.
Experimental: as §1, §2, §3

[13] = system: C. albicans GC3066 ATCC (Control); assay: MIC broth microdilution, C. albicans GC3066 ATCC (Control); type: cell-based; details: 18-22 hours at 35° C.
Experimental: as §1, §2, §3

[14] = system: S. pneumoniae* GC1894 (Clinical); assay: MIC broth microdilution, S. pneumoniae GC1894 (Clinical); type: cell-based; details: 18-22 hours at 35° C.
Experimental: as §1, §2, §3

[15] = system: E. coli GC2270 (tet(M)); assay: MIC broth microdilution, E. coli GC2270 (tet(M)); type: cell-based; details: MHBII, 18-22 hours at 35° C.
Experimental: as §1, §2, §3

[16] = system: S. aureus GC6467 (tet(M) + (K)); assay: MIC broth microdilution, S. aureus GC6467 (tet(M) + (K)); type: cell-based; details: MHBII, 18-22 hours at 35° C.
Experimental: as §1, §2, §3

[17] = system: H. influenzae<> GC6896 (ATCC Control); assay: MIC broth microdilution, H. influenzae GC6896 (ATCC Control); type: cell-based; details: 18-22 hours at 35° C.
Experimental: as §1, §2, §3

[18] = system: E. coli GC4560 (IMP mutant); assay: MIC broth microdilution, E. coli GC4560 (IMP mutant); type: cell-based; details: MHBII, 18-22 hours at 35° C.
Experimental: as §1, §2, §3

[19] = system: E. faecalis GC2267 (tet(L) + (M) + (S)); assay: MIC broth microdilution, E. faecalis GC2267 (tet(L) + (M) + (S)); type: cell-based; details: MHBII, 18-22 hours at 35° C.
Experimental: as §1, §2, §3

[20] = system: S. aureus GC1131 (Clinical); assay: MIC broth microdilution, S. aureus GC1131 (Clinical); type: cell-based; details: MHBII, 18-22 hours at 35° C.
Experimental: as §1, §2, §3

[21] = system: Staphylococcal aureus Smith M P; assay: In vivo antibacterial evaluation, acute lethal infection in mice; details: single intraveneous dose, female CD-1 mice, 7 day survival ratios, 3 tests pooled; for ED50: Mus musculus, iv, 168 h, read-out: SIV* ED50
[22] = system: Staphylococcal aureus Smith M P; assay: MIC reported in Table 2 beside the in vivo ED50; type: cell-based; details: Staphylococcus aureus, infecting strain S. aureus Smith MP
Experimental: Antimicrobial susceptibility testing. The in vitro activities of representative examples of antibiotics of the invention are determined by the broth microdilution method as recommended by the National Committee for Clinical Laboratory Standards (NCCLS) (1). Mueller-Hinton II broth (MHBII)(BBL Cockeysville, Md.) is the medium employed in the testing procedures. Microtiter plates containing serial dilutions of each antimicrobial agent are inoculated with each organism to yield the appropriate density (10^5 CFU/ml) in a 100 μl final volume. The plates are incubated for 18-22 hours at 35° C. in ambient air. […] NCCLS. 2000. Methods for Dilution Antimicrobial Susceptibility Tests for Bacteria That Grow Aerobically; Approved Standards: M7-A5, vol. 20. National Committe for Clinical Laboratory Standards, Wayne, Pa. In Vivo Antibacterial Evaluation: The therapeutic effects of representative examples of the invention are determined against acute lethal infection with Staphylococcal aureus Smith M P, Female mice, strain CD-1 (Charles River Laboratoties), ca. 20 grams, are challenged by an intraperitoneal injection of sufficient bacteria (suspended in broth or hog mucin) to kill non-treated controls within 24-28 hours. Antibacterial agents, contained in 0.5 ml of 0.2% aqueous agar, are administered subcutaneously or orally 30 minutes after injection. When an oral dosing schedule is used, animal are deprived of food for 5 hours before and 2 hours after injection. Five mice are treated at each dose level. The 7 day survival ratios from 3 separate tests are pooled for calculation of median effective dose (ED50).

[23] = system: Staphylococcal aureus Smith M P; assay: In vivo antibacterial evaluation, acute lethal infection in mice; details: single oral dose 30 minutes after intraperitoneal challenge, female CD-1 mice, 7 day survival ratios, 3 tests pooled; for ED50: Mus musculus, read-out: SOD* ED50
Experimental: In Vivo Antibacterial Evaluation: The therapeutic effects of representative examples of the invention are determined against acute lethal infection with Staphylococcal aureus Smith M P, Female mice, strain CD-1 (Charles River Laboratoties), ca. 20 grams, are challenged by an intraperitoneal injection of sufficient bacteria (suspended in broth or hog mucin) to kill non-treated controls within 24-28 hours. Antibacterial agents, contained in 0.5 ml of 0.2% aqueous agar, are administered subcutaneously or orally 30 minutes after injection. When an oral dosing schedule is used, animal are deprived of food for 5 hours before and 2 hours after injection. Five mice are treated at each dose level. The 7 day survival ratios from 3 separate tests are pooled for calculation of median effective dose (ED50).

| SMILES | minimum inhibitory concentration (MIC) [1] | minimum inhibitory concentration (MIC) [2] | minimum inhibitory concentration (MIC) [3] | minimum inhibitory concentration (MIC) [4] | minimum inhibitory concentration (MIC) [5] | minimum inhibitory concentration (MIC) [6] | minimum inhibitory concentration (MIC) [7] | minimum inhibitory concentration (MIC) [8] | minimum inhibitory concentration (MIC) [9] | minimum inhibitory concentration (MIC) [10] | minimum inhibitory concentration (MIC) [11] | minimum inhibitory concentration (MIC) [12] | minimum inhibitory concentration (MIC) [13] | minimum inhibitory concentration (MIC) [14] | minimum inhibitory concentration (MIC) [15] | minimum inhibitory concentration (MIC) [16] | minimum inhibitory concentration (MIC) [17] | minimum inhibitory concentration (MIC) [18] | minimum inhibitory concentration (MIC) [19] | minimum inhibitory concentration (MIC) [20] | other results |
| --- | --- | --- | --- | --- | --- | --- | --- | --- | --- | --- | --- | --- | --- | --- | --- | --- | --- | --- | --- | --- | --- |
| CN(C)[C@@H]1C(O)=C(C(N)=O)C(=O)[C@@]2(O)C(O)=C3C(=O)c4c(O)c(NC(=O)CN5CCCCO5)cc(-c5cccs5)c4C[C@H]3C[C@@H]12 [Example 10, (4S,4aS,5aR,12aS)-4-(dimethylamino)-3,10,12,12a-tetrahydroxy-9-[(1,2-oxazinan-2-ylacetyl)amino]-1,11-dioxo-7-thien-2-yl-1,4,4a,5,5a,6,11,12a-octahydrotetracene-2-carboxamide] | 4 | 4 | 2 | 2 | 4 | 2 | 8 | >64 | >64 | 4 | 2 | >64 | >64 | 2 | >64 | 8 | >64 | 4 | 4 | 4 |  |
| CN(C)c1cc(NC(=O)CN(O)Cc2ccccc2)c(O)c2c1C[C@H]1C[C@H]3[C@H](N(C)C)C(O)=C(C(N)=O)C(=O)[C@@]3(O)C(O)=C1C2=O [Example 6, (4S,4aS,5aR,12aS)-9-[(N-benzyl-N-hydroxyglycyl)amino]-4,7-bis(dimethylamino)-3,10,12,12a-tetrahydroxy-1,11-dioxo-1,4,4a,5,5a,6,11,12a-octahydrotetracene-2-carboxamide] | 8 | 2 | 0.50 | 0.25 | 2 | 2 | 1 | 8 | 16 | 2 | 0.12 | 32 | >64 | 0.25 | 16 | 64 | 2 | 0.25 | 8 | 4 | ED50 [21]: > 4 mg/kg; MIC [22]: 2 µg/mL (≈ 3.15 µM); ED50 [23]: > 16 mg/kg |
| CN(C)c1ccc(O)c2c1C[C@H]1C[C@H]3[C@H](N(C)C)C(O)=C(C(N)=O)C(=O)[C@@]3(O)C(O)=C1C2=O [Minocycline, 7-(dimethylamino)-6-demethyl-6-deoxytetracycline, reference compound] |  |  | <0.06 | <0.06 |  | 8 | 4 | 2 |  |  |  | 16 | >64 | 4 | 64 |  |  |  | 16 |  | ED50 [21]: 0.37 to 0.42 mg/kg; MIC [22]: 0.25 µg/mL (≈ 0.546 µM); ED50 [23]: 0.6 to 0.93 mg/kg |
| CN(C)c1cc(NC(=O)CNC(C)(C)C)c(O)c2c1C[C@H]1C[C@H]3[C@H](N(C)C)C(O)=C(C(N)=O)C(=O)[C@@]3(O)C(O)=C1C2=O [GAR-936, reference compound] |  |  |  |  |  |  |  |  |  |  |  |  |  |  |  |  |  |  |  |  | SIV* ED50 [21]: 0.46 mg/kg; SOD* ED50 [23]: 36 mg/kg |
| CN(C)[C@@H]1C(O)=C(C(N)=O)C(=O)[C@@]2(O)C(O)=C3C(=O)c4c(O)c(NC(=O)CN5CCCCO5)cc(I)c4C[C@H]3C[C@@H]12 [Example 9, (4S,4aS,5aR,12aS)-4-(dimethylamino)-3,10,12,12a-tetrahydroxy-7-iodo-9[(1,2-oxazinan-2-ylacetyl)amino]-1,11-dioxo-1,4,4a,5,5a,6,11,12a-octahydrotetracene-2-carboxamide] | 2 | 4 | 2 | 1 | 1 | 1 | 4 | >64 | >64 | 8 | 1 | >64 | >64 | 0.50 | >64 | 4 | >64 | 2 | 2 | 2 |  |

— US7812008B2, “9-substituted tetracyclines” (Wyeth LLC, priority 2005, dated 2010)
